In brackets after ≈: the same amount, converted by molar mass. Read-outs that look alike come from different tables or passages of the source.
Legend:
C. neoformans H99 [1] = experiment: microbe, parasite or virus in culture; type: cell-based, Cryptococcus neoformans; conditions: Cryptococcus neoformans, H99; compound alone; RPMI1640, 37 °C, 48 h; read-out: MIC
Description: (§1) All microdilution assays with fungi were carried out in accordance with CLSI protocols from M27 for yeasts and M38 for filamentous fungi, respectively, unless otherwise specified.[64],[65] Briefly, 96-well plates were charged with RPMI1640 media, with operating volume in the first column, 200 μL, and half operating volume, 100 μL, in the remaining wells. Drug stock solution in DMSO was aliquoted into the first well in each row. Half of the volume in the dosed well was serially diluted 2-fold until column 11. Column 11 was used as the negative growth control, and column 12 was used as the positive growth control. ON yeast cultures in YPD were washed twice in DD-H2O, resuspended in PBS, and adjusted to 5000 cfu/mL in RPMI. The 96-well plate was inoculated with 100 μL aliquots of cell suspension per well. Plates were incubated at 37 °C for 2 days.

C. neoformans MRL862 = experiment: microbe, parasite or virus in culture; type: cell-based, Cryptococcus neoformans; conditions: Cryptococcus neoformans
Description: as §1

C. neoformans Crm1^OE = experiment: microbe, parasite or virus in culture; type: cell-based, Cryptococcus neoformans; conditions: Cryptococcus neoformans, 48 h
Description: as §1

C. neoformans apt3Δ = experiment: microbe, parasite or virus in culture; type: cell-based, Cryptococcus neoformans; conditions: Cryptococcus neoformans, 48 h
Description: as §1

C. neoformans apt1Δ = experiment: microbe, parasite or virus in culture; type: cell-based, Cryptococcus neoformans; conditions: Cryptococcus neoformans, 48 h
Description: as §1

C. neoformans apt4Δ = experiment: microbe, parasite or virus in culture; type: cell-based, Cryptococcus neoformans; conditions: Cryptococcus neoformans, 48 h
Description: as §1

C. neoformans crm1Δ = experiment: microbe, parasite or virus in culture; type: cell-based, Cryptococcus neoformans; conditions: Cryptococcus neoformans, 48 h
Description: as §1

C. neoformans cdc50Δ = experiment: microbe, parasite or virus in culture; type: cell-based, Cryptococcus neoformans; conditions: Cryptococcus neoformans, 48 h
Description: as §1

C. neoformans apt2Δ = experiment: microbe, parasite or virus in culture; type: cell-based, Cryptococcus neoformans; conditions: Cryptococcus neoformans, 48 h
Description: as §1

C. glabrata 2001 [2] = type: cell-based, Candida glabrata; conditions: for MIC of antifungal in combination with KKOO / MIC of antifungal in combination with KKOO-NH2: RPMI1640, 37 °C, 48 h
Description: as §1
(§2) To assess drug synergy, the initial media charged to the plate contained the peptide at twice the final operating concentration; the remaining processing steps were identical to the MIC experiment. Upon addition of 100 μL of inoculant, the final operating concentration was achieved. Control MIC plates were prepared alongside drug synergy plates to account for the day-to-day variability in any individual MIC. FIC index is computed using eq 1. All MIC assays and drug synergy assays were completed with two technical replicates per 96-well plate and a minimum of two biological replicates per drug combination. If a difference in MIC between the two technical replicates on the plate were observed, only the higher concentration was reported as the MIC to reduce the possibility of type 1 error (false positive) [drawing 1] 1

C. glabrata FKS1-S629P = experiment: microbe, parasite or virus in culture; type: cell-based, Candida glabrata; conditions: Nakaseomyces glabratus, FKS1S629P, 48 h
Description: as §1

C. glabrata 2001 [3] = experiment: microbe, parasite or virus in culture; type: cell-based, Candida glabrata; conditions: Nakaseomyces glabratus, 2001; compound alone; RPMI1640, 37 °C, 48 h; read-out: MIC
Description: as §1

C. glabrata FKS2-S663P = experiment: microbe, parasite or virus in culture; type: cell-based, Candida glabrata; conditions: Nakaseomyces glabratus, FKS2S663P, 48 h
Description: as §1

C. neoformans H99 [4] = type: cell-based, Cryptococcus neoformans; conditions: for MIC of antifungal in combination with (FITC)KKOO / MIC of antifungal in combination with KKOO / MIC of antifungal in combination with KKOO-NH2: RPMI1640, 37 °C; for MIC of antifungal in combination with KKOO / MIC of antifungal in combination with KKOO-NH2: 48 h
Description: as §1, with “Plates were incubated at 37 °C for 2 days.” left out
as §2

Structure (SMILES) | MIC (C. neoformans H99 [1]) [µg/mL] | MIC (C. neoformans Crm1^OE) [µg/mL] | MIC (C. neoformans apt3Δ) [µg/mL] | MIC (C. neoformans apt1Δ) [µg/mL] | MIC (C. neoformans apt4Δ) [µg/mL] | MIC (C. neoformans crm1Δ) [µg/mL] | MIC (C. neoformans cdc50Δ) [µg/mL] | MIC (C. neoformans apt2Δ) [µg/mL] | MIC of antifungal in combination with KKOO (C. glabrata 2001 [2]; +0 μg/mL KKOO (control)) [µg/mL] | MIC of antifungal in combination with KKOO-NH2 (C. glabrata 2001 [2]; +0 μg/mL KKOO-NH2 (control)) [µg/mL] | MIC of antifungal in combination with KKOO-NH2 (C. glabrata 2001 [2]; +1 μg/mL KKOO-NH2) [µg/mL] | MIC of antifungal in combination with KKOO (C. glabrata 2001 [2]; +1 μg/mL KKOO) [µg/mL] | MIC of antifungal in combination with KKOO-NH2 (C. glabrata 2001 [2]; +2 μg/mL KKOO-NH2) [µg/mL] | MIC of antifungal in combination with KKOO (C. glabrata 2001 [2]; +2 μg/mL KKOO) [µg/mL] | MIC of antifungal in combination with KKOO-NH2 (C. glabrata 2001 [2]; +4 μg/mL KKOO-NH2) [µg/mL] | MIC of antifungal in combination with KKOO (C. glabrata 2001 [2]; +4 μg/mL KKOO) [µg/mL] | MIC of antifungal in combination with KKOO (C. glabrata 2001 [2]; +8 μg/mL KKOO) [µg/mL] | MIC (C. glabrata FKS1-S629P) [µg/mL] | MIC (C. glabrata 2001 [3]) [µg/mL] | MIC (C. glabrata FKS2-S663P) [µg/mL] | other results
C[C@@H]1[C@H](O)[C@@H](C)/C=C/C=C/C=C/C=C/C=C/C=C/C=C/[C@H](O[C@@H]2O[C@H](C)[C@@H](O)[C@H](N)[C@@H]2O)C[C@@H]2O[C@](O)(C[C@@H](O)C[C@@H](O)[C@H](O)CC[C@@H](O)C[C@@H](O)CC(=O)O[C@H]1C)C[C@H](O)[C@H]2C(=O)O [AMB, amphotericin B] | 0.5 (≈ 0.541 µM) | 0.5 (≈ 0.541 µM) | 0.5 (≈ 0.541 µM) | 0.5 (≈ 0.541 µM) | 0.25 (≈ 0.271 µM) | 0.5 (≈ 0.541 µM) | 0.5 (≈ 0.541 µM) | 0.25 (≈ 0.271 µM) | 1 | 1 | 0.5 | 0.5 | 0.25 | 0.25 | 0.25 | 0.25 | 0.125 | 1 (≈ 1.08 µM) | 1 (≈ 1.08 µM) | 1 (≈ 1.08 µM) | MIC (C. neoformans MRL862; MRL862, 48 h): 0.125 µg/mL (≈ 0.135 µM); MIC of antifungal in combination with (FITC)KKOO (C. neoformans H99 [4]; +0 μg/mL (FITC)KKOO): 0.5 µg/mL; MIC of antifungal in combination with KKOO (C. neoformans H99 [4]; +0 μg/mL KKOO (control)): 0.5 µg/mL; MIC of antifungal in combination with KKOO-NH2 (C. neoformans H99 [4]; +0 μg/mL KKOO-NH2 (control)): 0.5 µg/mL; MIC of antifungal in combination with KKOO-NH2 (C. neoformans H99 [4]; +1 μg/mL KKOO-NH2): 0.062 µg/mL; MIC of antifungal in combination with KKOO (C. neoformans H99 [4]; +1 μg/mL KKOO): 0.25 µg/mL; MIC of antifungal in combination with KKOO-NH2 (C. neoformans H99 [4]; +2 μg/mL KKOO-NH2): 0.062 µg/mL; MIC of antifungal in combination with KKOO (C. neoformans H99 [4]; +2 μg/mL KKOO): 0.062 µg/mL; MIC of antifungal in combination with (FITC)KKOO (C. neoformans H99 [4]; +4 μg/mL (FITC)KKOO): 0.125 µg/mL; MIC of antifungal in combination with KKOO-NH2 (C. neoformans H99 [4]; +4 μg/mL KKOO-NH2): 0.031 µg/mL; MIC of antifungal in combination with KKOO (C. neoformans H99 [4]; +4 μg/mL KKOO): 0.062 µg/mL; MIC of antifungal in combination with (FITC)KKOO (C. neoformans H99 [4]; +8 μg/mL (FITC)KKOO): 0.062 µg/mL; MIC of antifungal in combination with KKOO (C. neoformans H99 [4]; +8 μg/mL KKOO): 0.062 µg/mL; reduction of MIC of antifungal (C. neoformans H99 [4]; in the presence of 1 μg/mL KKOO-NH2, 48 h): 8 fold; reduction of MIC of antifungal (C. neoformans H99 [4]; in the presence of 4 μg/mL (FITC)KKOO): 4 fold
CC[C@H](C)C[C@H](C)CCCCCCCCC(=O)N[C@H]1C[C@@H](O)[C@@H](NCCN)NC(=O)[C@@H]2[C@@H](O)CCN2C(=O)[C@H]([C@H](O)CCN)NC(=O)[C@H]([C@H](O)[C@@H](O)c2ccc(O)cc2)NC(=O)[C@@H]2C[C@@H](O)CN2C(=O)[C@H]([C@@H](C)O)NC1=O [CAS, caspofungin] | 16 (≈ 14.6 µM) | 16 (≈ 14.6 µM) | 16 (≈ 14.6 µM) | 8 (≈ 7.32 µM) | 16 (≈ 14.6 µM) | 16 (≈ 14.6 µM) | 4 (≈ 3.66 µM) | 16 (≈ 14.6 µM) | 0.5 | 0.5 | 0.5 | 0.5 | 0.125 | 0.25 | 0.004 | 0.016 | 0.556 | 2 (≈ 1.83 µM) | 0.5 (≈ 0.457 µM) | 4 (≈ 3.66 µM) | MIC (C. neoformans MRL862; MRL862, compound alone, RPMI1640, 37 °C, 48 h, read-out: MIC): 16 µg/mL (≈ 14.6 µM); reduction of MIC of antifungal (C. glabrata 2001 [2]; in the presence of 2 μg/mL KKOO-NH2): 4 fold; MIC of antifungal in combination with (FITC)KKOO (C. neoformans H99 [4]; +0 μg/mL (FITC)KKOO): 16 µg/mL; MIC of antifungal in combination with KKOO (C. neoformans H99 [4]; +0 μg/mL KKOO (control)): 16 µg/mL; MIC of antifungal in combination with KKOO-NH2 (C. neoformans H99 [4]; +0 μg/mL KKOO-NH2 (control)): 16 µg/mL; MIC of antifungal in combination with KKOO-NH2 (C. neoformans H99 [4]; +1 μg/mL KKOO-NH2): 16 µg/mL; MIC of antifungal in combination with KKOO (C. neoformans H99 [4]; +1 μg/mL KKOO): 16 µg/mL; MIC of antifungal in combination with KKOO-NH2 (C. neoformans H99 [4]; +2 μg/mL KKOO-NH2): 16 µg/mL; MIC of antifungal in combination with KKOO (C. neoformans H99 [4]; +2 μg/mL KKOO): 16 µg/mL; MIC of antifungal in combination with (FITC)KKOO (C. neoformans H99 [4]; +4 μg/mL (FITC)KKOO): 16 µg/mL; MIC of antifungal in combination with KKOO-NH2 (C. neoformans H99 [4]; +4 μg/mL KKOO-NH2): 4 µg/mL; MIC of antifungal in combination with KKOO (C. neoformans H99 [4]; +4 μg/mL KKOO): 16 µg/mL; MIC of antifungal in combination with (FITC)KKOO (C. neoformans H99 [4]; +8 μg/mL (FITC)KKOO): 16 µg/mL; MIC of antifungal in combination with KKOO (C. neoformans H99 [4]; +8 μg/mL KKOO): 8 µg/mL

From paper PMC11555678, “Improved Broad Spectrum Antifungal Drug Synergies with Cryptomycin, a Cdc50-Inspired Antifungal Peptide” (ACS Infectious Diseases, 2024)
